# Experimental data taken from patent US10287617B2, “Methods for in vitro—in vivo efficacy determination” (COLORADO STATE UNIVERSITY RESEARCH FOUNDATION, priority 2014, dated 2019).
# Values joined by “and” are separate entries in the source; they are usually repeats but may differ in a detail not shown here. Equal values may be shown once.
# How the values were obtained:
# M. tuberculosis H37Rv [1] = type: cell-based; conditions: SB-P17G-A20 with rifampicin
# M. tuberculosis H37Rv [2] = type: cell-based, Mycobacterium tuberculosis; conditions: 2×10^9 cells plated on 1.6 μg/mL (10 times MIC)
# M. tuberculosis Erdman = type: in vivo; conditions: SB-P17G-A20 50 mg/kg IP bid, INH 20 mg/kg IP qd, days 5 to 14 post-infection
Compound,enhancement of activity in the presence of the other drug (M. tuberculosis H37Rv [1]),ΣFIC (M. tuberculosis H37Rv [1]),spontaneous resistant mutants (M. tuberculosis H37Rv [2]),reduction in bacterial load in the lungs (M. tuberculosis Erdman),reduction in bacterial load in the spleen (M. tuberculosis Erdman)
CN(C)c1cc2nc(C3CCCCC3)[nH]c2cc1NC(=O)c1ccc(OC(F)(F)F)cc1 [SB-P17G-A20],2-4 fold,0.75,No mutants where observed,1.73±0.24 log10 CFU and 1.73 log10 CFU,2.68 log10 CFU and 2.68±0.48 log10 CFU
"NNC(=O)c1ccncc1 [Isoniazid, reference compound]",–,–,–,below the level of detection,below the level of detection
CCCCOC(=O)Nc1cc2nc(C3CCCCC3)[nH]c2cc1N(C)C [SB-P17G-C2],–,–,–,no significant reduction,no significant reduction
